Tests used:
Type in all cases: cell-based, human
[1] = tested on: phospho-p44/42 MAPK (Erk1/2) (Thr202/Tyr204); assay: Western blot of KRAS downstream signaling 48 h post transfection; details: PANC-1 cells
Protocol: (§1) In order to verify the specific effect of your lead sgRNA targeting G12V and G12D KRAS mutation, gRNA35A5 G12D and gRNA35T3 G12V on KRAS signal transduction pathway in PANC-1 and SW403 cells, we measured the levels of downstream signaling proteins that are activated by KRAS. We specifically looked for changes in key signaling pathways, such as mitogen-activated protein kinase (MAPK) or PI3K/Akt, which are known to be the major effector pathways of KRAS activation. Cas9 mRNA (0.2 μg) and gRNA (0.2 μg or 0.5 μg) were associated with ADGN peptide at molar ratio 20/1 (peptide/nucleic acid). PANC1 and SW403 cells were cultured in 48 well plate format and treated with free mRNACas9-gRNA, or ADGN/mRNACas9:gRNA complex. Levels of Erk and Akt phosphorylation were measured 48 h post transfection by western blot using phospho-Akt (Ser 473) (CST, #9271, RRID:AB_329825) and phospho-p44/42 MAPK (Erk1/2) (Thr202/Tyr204) (CST, #4370, RRID:AB_2315112).

phospho-Akt (Ser 473) = assay: as above; details: PANC-1 cells
Protocol: as §1

wild type KRAS = assay: Indel frequencies at the endogenous target sequences (T7E1 / deep sequencing) after ADGN/Cas9 mRNA/gRNA transfection; details: deep sequencing, 72 hours after transfection, Cas9 mRNA 0.1 μg, gRNA 0.2 μg
Method in brief: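 Cas9 mRNA and gRNA complexed with ADGN peptide (20:1 molar ratio) and transfected into KRAS-mutant (G12V or G12D) and other cancer cell lines in 48-well format, 2 h exposure in serum-free DMEM. Indels at endogenous target sites measured 72 h post-transfection by T7E1 or deep sequencing.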

Q: Which “level of P-Erk reduced by” value [1] does the source give for “AGT TGG AGC TGA TGG CGT (guide AGTTGGAGCTGATGGCGT; chemistry not given here) [gRNA35A5, sgRNA target KRAS G12D mutation (35G>A); PAM AGG]” here?
A: Its value is 15%.

Q: And the “level of p-AKT” value (phospho-Akt (Ser 473))?
A: The value was “significantly reduced”.

Q: And the indel frequencies (wild type KRAS; HS68 cells (WT KRAS))?
A: The indel frequencies was 2 ± 1%.

Q: And the indel frequencies (wild type KRAS; HT-29 cells (WT KRAS))?
A: The indel frequencies was 2 ± 1%.
